Experimental data published in patent publication US20160031855A1, “PROTEIN KINASE INHIBITORS” (ORION CORPORATION, priority 2013, published 2016).
pIC50: −log10 of the molar value.

Molecular target: T1, FGFR1 kinase (Homo sapiens, UniProt P11362)
T1 construct: purchased Upstate, USA
Test: TR-FRET assay with FGFR1 kinase
Type: biochemical
Conditions: 13 μM ATP; for pIC50: dose response, read-out: IC50 of FGFR1 inhibition; for inhibition at 1 µM: compound at 1000 nM
Experimental: 1. Inhibition of FGFR1 kinase
Compounds were screened in the TR-FRET assay with FGFR1 kinase. 5 ng of FGFR1 [Upstate, USA] kinase was used for assay. The compound was incubated with the kinase for 30 minutes at room temperature. After the incubation, substrate mix [40 nM Ultra light poly GT (Perkin Elmer, USA) and 13 μM ATP (Sigma)] was added. The above reaction was stopped by the addition of 40 mM EDTA after the 30 min kinase reaction. The Eu-labelled antiphospho-tyrosine antibody [Perkin Elmer, USA] was added at 0.5 nM and the fluorescence emission at 615 nm/665 nm [excitation at 340 nm] was measured. The compounds were initially screened at 100 nM and 1 μM concentrations. The compounds with >50% inhibition at 100 nM of FGFR1 were taken for the full dose response studies. The final DMSO concentration in the assay was 1%. For IC50 determination, ⅓^rd serial dilution was made from the 20 mM DMSO stock solution. 2 μl of these were transferred to the test wells containing […] of the reaction mixture [total reaction volume 20 μl]. The fluorescence was measured in Perkin Elmer Wallac 1420 Multilabel Counter Victor 3. The IC50 was determined by fitting the dose response data to sigmoidal curve fitting equation using GraphPad Prism software V5.

T1 sequence (P11362 22-822): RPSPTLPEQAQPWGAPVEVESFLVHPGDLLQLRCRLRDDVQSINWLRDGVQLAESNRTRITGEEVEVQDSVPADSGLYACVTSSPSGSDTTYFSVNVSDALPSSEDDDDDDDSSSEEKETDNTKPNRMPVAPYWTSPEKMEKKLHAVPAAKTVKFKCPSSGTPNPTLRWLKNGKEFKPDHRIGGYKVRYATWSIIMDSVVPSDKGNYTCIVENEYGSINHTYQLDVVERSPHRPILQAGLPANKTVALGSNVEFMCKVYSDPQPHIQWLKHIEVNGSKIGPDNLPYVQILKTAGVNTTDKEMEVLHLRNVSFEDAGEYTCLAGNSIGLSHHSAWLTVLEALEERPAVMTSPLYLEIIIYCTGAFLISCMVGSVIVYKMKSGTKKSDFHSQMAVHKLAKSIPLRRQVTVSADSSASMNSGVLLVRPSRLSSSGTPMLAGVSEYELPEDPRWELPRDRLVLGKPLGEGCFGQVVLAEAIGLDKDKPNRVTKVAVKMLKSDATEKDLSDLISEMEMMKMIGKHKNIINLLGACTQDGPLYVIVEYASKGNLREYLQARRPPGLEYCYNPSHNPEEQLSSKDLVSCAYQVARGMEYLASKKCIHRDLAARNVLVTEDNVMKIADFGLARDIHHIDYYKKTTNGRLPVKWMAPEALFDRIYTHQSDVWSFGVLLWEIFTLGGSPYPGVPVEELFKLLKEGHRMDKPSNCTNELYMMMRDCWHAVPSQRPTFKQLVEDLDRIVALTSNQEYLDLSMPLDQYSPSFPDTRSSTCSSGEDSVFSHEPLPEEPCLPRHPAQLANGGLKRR

Compound | pIC50 | inhibition at 1 µM
Cn1cc(-c2ccc3c(c2)ncn3-c2cc(-c3ccccc3Cl)cc(NS(=O)(=O)C3CC3)n2)cn1 [Example 28, N-(4-(2-chlorophenyl)-6-(5-(1-methyl-1H-pyrazol-4-yl)-1H-benzo[d]imidazol-1-yl)pyridin-2-yl)cyclopropanesulfonamide] | 8.14 | 97%
Cn1cc(-c2ccc3c(c2)ncn3-c2cc(-c3ncccc3Cl)cc(NS(=O)(=O)C3CC3)n2)cn1 [Example 29, N-(3-chloro-6′-(5-(1-methyl-1H-pyrazol-4-yl)-1H-benzo[d]imidazol-1-yl)-[2,4′-bipyridin]-2′-yl)cyclopropanesulfonamide] | 8.01 | 97%
Cn1cc(-c2ccc3c(c2)ncn3-c2cc(-c3ccc(F)cn3)cc(NS(=O)(=O)C3CC3)n2)cn1 [Example 30, N-(5-fluoro-6′-(5-(1-methyl-1H-pyrazol-4-yl)-1H-benzo[d]imidazol-1-yl)-[2,4′-bipyridin]-2′-yl)cyclopropanesulfonamide] | 7.62 | 96%
O=S(=O)(Nc1cc(-c2ccc(F)cc2F)cc(-n2cnc3cc(-n4ccnc4)ccc32)n1)C1CC1 [Example 32, N-(6-(5-(1H-imidazol-1-yl)-1H-benzo[d]imidazol-1-yl)-4-(2,4-difluorophenyl)-pyridin-2-yl)cyclopropanesulfonamide] | 7.66 | 99%
O=S(=O)(Nc1cc(-c2ccc(F)cc2F)cc(-n2cnc3cc(-c4cnn(CCN5CCOCC5)c4)ccc32)n1)C1CC1 [Example 33, N-(4-(2,4-difluorophenyl)-6-(5-(1-(2-morpholinoethyl)-1H-pyrazol-4-yl)-1H-benzo[d]imidazol-1-yl)pyridin-2-yl)cyclopropanesulfonamide] | 8.70 | 99%
O=S(=O)(Nc1cc(-c2ccc(F)cc2F)cc(-n2cnc3cc(-c4cnn(C5CCNC5)c4)ccc32)n1)C1CC1 (stereo not shown) [Example 34, N-(4-(2,4-difluorophenyl)-6-(5-(1-(pyrrolidin-3-yl)-1H-pyrazol-4-yl)-1H-benzo[d]imidazol-1-yl)pyridin-2-yl)cyclopropanesulfonamide] | 8.80 | 99%
CCn1cc(-c2ccc3c(c2)ncn3-c2cc(-c3ccc(F)cc3F)cc(NS(=O)(=O)C3CC3)n2)nn1 [Example 35, N-(4-(2,4-difluorophenyl)-6-(5-(1-ethyl-1H-1,2,3-triazol-4-yl)-1H-benzo[d]-imidazol-1-yl)pyridin-2-yl)cyclopropanesulfonamide] | 8.70 | 99%
Cn1cc(-c2ccc3c(c2)ncn3-c2cc(-c3ccc(F)cc3F)cc(NS(=O)(=O)C3CC3)n2)nn1 [Example 36, N-(4-(2,4-difluorophenyl)-6-(5-(1-methyl-1H-1,2,3-triazol-4-yl)-1H-benzo[d]-imidazol-1-yl)pyridin-2-yl)cyclopropanesulfonamide] | 8.33 | 99%
Cn1cnc(-c2ccc3c(c2)ncn3-c2cc(-c3ccc(F)cc3F)cc(NS(=O)(=O)C3CC3)n2)c1 [Example 37, N-(4-(2,4-difluorophenyl)-6-(5-(1-methyl-1H-imidazol-4-yl)-1H-benzo[d]-imidazol-1-yl)pyridin-2-yl)cyclopropanesulfonamide] | 8.89 | 99%
CC(=O)Nc1nc(-c2ccc(F)cc2F)cc(-n2cnc3cc(-c4cnn(C)c4)ccc32)n1 [Example 38, N-(4-(2,4-difluorophenyl)-6-(5-(1-methyl-1H-pyrazol-4-yl)-1H-benzo[d]-imidazol-1-yl)pyrimidin-2-yl)acetamide] | 7.92 | 87%
CCOC(=O)c1cn(-c2ccc3c(c2)ncn3-c2cc(-c3ccc(F)cc3F)cc(NS(=O)(=O)C3CC3)n2)nn1 [Example 39, Ethyl 1-(1-(6-(cyclopropanesulfonamido)-4-(2,4-difluorophenyl)pyridin-2-yl)-1H-benzo[d]imidazol-5-yl)-1H-1,2,3-triazole-4-carboxylate] | 6.53 | 81%
Cn1cc(-c2ccc3c(c2)ncn3-c2cc(-c3ccc(F)cc3OC(F)F)cc(NS(=O)(=O)C3CC3)n2)cn1 [Example 40, N-(4-(2-(difluoromethoxy)-4-fluorophenyl)-6-(5-(1-methyl-1H-pyrazol-4-yl)-1H-benzo[d]imidazol-1-yl)pyridin-2-yl)cyclopropanesulfonamide] | 6.53 | 76%
Cn1cc(-c2ccc3c(c2)ncn3-c2cc(-c3ccc(F)cc3F)nc(NS(=O)(=O)C3CC3)n2)cn1 [Example 41, N-(4-(2,4-difluorophenyl)-6-(5-(1-methyl-1H-pyrazol-4-yl)-1H-benzo[d]-imidazol-1-yl)pyrimidin-2-yl)cyclopropanesulfonamide] | 7.49 | 93%
Cn1cc(-c2ccc3c(c2)ncn3-c2cc(NS(=O)(=O)C3CC3)nc(-c3ccc(F)cc3F)c2)cn1 [Example 43, N-(6-(2,4-difluorophenyl)-4-(5-(1-methyl-1H-pyrazol-4-yl)-1H-benzo[d]-imidazol-1-yl)pyridin-2-yl)cyclopropanesulfonamide] | 7.36 | 94%
